Reference: patent US8613941B1, “Synergistic antimicrobial composition” (Dow Global Technologies LLC, priority 2012, dated 2013)

Assays:
[1] = tested on: oil field isolated anaerobic consortium, mainly SRB; experiment: Biocidal efficacy (MBC) of THPS, Tris Nitro and combination against sulfate reducing bacteria; type: cell-based, sulfate reducing bacteria (SRB); details: alone or in the blend, minimum tested biocide concentration for bacteria kill, 40° C., 24 hours, 10^6 to 10^7 CFU/mL
Experimental: Inside an anaerobic chamber (BACTRON anaerobic chamber), a deaerated sterile salt solution (3.1183 g of NaCl, 1.3082 mg of NaHCO3, 47.70 mg of KCl, 72.00 mg of CaCl2, 54.49 mg of MgSO4, 172.28 mg of Na2SO4, 43.92 mg of Na2CO3 in 1 L water) was contaminated with an oil field isolated anaerobic consortium, mainly SRB, at final bacterial concentrations of 10^6 to 10^7 CFU/mL. The aliquots of this contaminated water were then treated with THPS and Tris Nitro, or the THPS/Tris Nitro combination at different active concentration levels. After the mixtures were incubated at 40° C. for 24 hours, the biocidal efficacy was determined by minimum tested biocide concentration for bacteria kill in the aliquots (MBC). Table 1 summarizes the efficacy of each biocide and their blends, and the Synergy Index* of each combination.

[2] = tested on: oilfield SRB consortium; experiment: Biocidal efficacy against anaerobic bacteria for a high temperature and sulfide-rich environment; type: cell-based, sulfate reducing bacteria (SRB); details: alone or in the blend, 80° C., 7 days, 10 ppm sulfide ion, 10^4 to 10^5 CFU/mL
Experimental: Inside an anaerobic chamber (BACTRON IV), biocides solutions were challenged with 10^4 to 10^5 CFU/mL of an oilfield SRB consortium and 10 ppm sulfide ion (added in the form of sodium sulfide). The biocide solutions were then incubated at 80° C. under anaerobic condition for 7 days. Then the biocidal efficacy was evaluated against the field SRB consortium. The biocidal efficacy was determined by the biocide dosage required for 99.999% bacterial reduction. Synergy Index was then calculated. Table 2 summarizes the efficacy of each biocide and their blends, and the Synergy Index* of each combination.

tetrakis(hydroxymethyl)phosphonium sulfate [1:0]
Average MBC (active ppm), THPS ([1]; THPS concentration): 6.1 active ppm
Concentration (active ppm) required for 99.999% bacterial reduction, THPS ([2]; THPS concentration): 360.0 active ppm

O=[N+]([O-])C(CO)(CO)CO [0:1, tris(hydroxymethyl)nitromethane]
Average MBC (active ppm), Tris Nitro ([1]; Tris Nitro concentration): 46.1 active ppm
Concentration (active ppm) required for 99.999% bacterial reduction, Tris Nitro ([2]; Tris Nitro concentration): 360 active ppm
